From paper PMC9742639, “Inhibition of glycogen synthase kinase-3-beta (GSK3β) blocks nucleocapsid phosphorylation and SARS-CoV-2 replication” (Molecular Biomedicine, 2022)
Values joined by “and” are separate entries in the source; they are usually repeats but may differ in a detail not shown here. Equal entries are not always repeated. Where two headings read alike, the source gives them in different places. Square brackets hold non-standard residues; d marks the D form. Primed or numbered codes have the meaning given here. Ends that are not written are not given here. pS′ = not defined here; pT′ = not defined here

Legend:
HCoV-229E [1] = test: High-content screen / dose-response of HCoV-229E-infected Huh-7.5.1 cells (dsRNA); type: cell-based
SARS-CoV-2 [2] = test: High-content screen / dose-response of SARS-CoV-2-infected Huh-7.5.1 cells (dsRNA, nucleocapsid); type: cell-based; conditions: for ED50, activity against SARS-CoV-2 / inhibition at 10 µM: Huh-7.5.1 cells; for ED50, activity against SARS-CoV-2: intracellular N protein; for inhibition at 10 µM: Severe acute respiratory syndrome coronavirus 2
GSK3β = molecular target: T1, GSK3β (Homo sapiens, UniProt P49841); test: In vitro inhibition of GSK3β, ADP-Glo Kinase Assay; type: biochemical; conditions: read-out: IC50, GSK3β enzymatic activity
T1 construct: GST; purchased SignalChem G09-10G
Procedure: All protein kinase reactions were performed with the ADP-Glo Kinase Assay from ProMega (Madison, WI, USA). Substrate peptides were assayed at a final concentration of ~ 250 μM with 250 μM ATP for 30 min at 30 °C in a final volume of 25 μL. Recombinant nucleocapsid was similarly assayed at a final concentration of 13.4 ng/μL. The concentrations of recombinant protein kinases used were ~ 2 ng/μL.
Supplemental Figure S3: in vitro inhibition of GSK3. ADP-Glo^TM Kinase Assay normalized to the negative control (100% kinase activity), dose-response was analyzed by non-linear regression.

SARS-CoV-2 [3] = test: Viral titer from 48-h SARS-CoV-2-infected Calu-3 cells; type: cell-based; conditions: 48 h after infection and treatment, 100 μM
HCoV-229E [4] = test: Chou-Talalay synergy with Remdesivir in HCoV-229E-infected cells; type: cell-based; conditions: Chou-Talalay method, CI < 1 synergistic
Procedure: Statistical analyses were performed and figures were prepared using GraphPad Prism 9™ (GraphPad Software, Inc.). Imbedded blots and fluorescent images were generated using GIMP^©. Chou-Talalay synergy analysis was performed using CompuSyn (ComboSyn Inc.). CI values < 1 are defined as synergistic, CI = 1 as additive, and CI > 1 as antagonistic.
Supplemental Figure S4: Synergy experiment. Dose-response combination of Remdesivir (Rem) and T-1686568 (T2) using CompuSyn V1.0. Representative experiment of two independent experiments.

SARS-CoV-2 [5] = test: SARS-CoV-2 infection of primary donor-derived colon organoids (intracellular N protein); type: cell-based; conditions: donor intestinal organoids monolayer, 72 hrs post-infection
SARS-CoV-2 [6] = type: cell-based
in vitro = conditions: human
Procedure: (§1) Total number of cells (via nuclei staining) and number of virus-infected cells (via dsRNA and nucleocapsid staining) was measured using the CellInsight CX5 High Content Screening platform (Thermo Fisher), as previously described [24]. Briefly, cell nuclei are stained with Hoechst (33342) for detection at the 350/461 nm wavelength and a region of interest (ROI) marks each cell, which is verified using cell membrane imaging in the bright field. The ROI includes the areas where dsRNA (485/521 nm wavelength) and SARS-CoV-2 nucleocapsid (533/588 nm wavelength) are localized. The software (HCS Studio Cell Analysis Software, version 4.0) tallies ROIs where dsRNA and nucleocapsid are located within stained nuclei by compiling pixel area and intensity measurements. The fluorescence emitted by the dsRNA and nucleocapsid are then quantified for each well. The total intensity of each well indicates the viral load and is normalized against non-infected cells and untreated infected cells. Cell loss (from cytotoxicity or poor adherence) was quantified using the same stain (Hoechst 33342) and was used to normalize the changes in viral load resulting from a decrease in cell numbers. Based on average variation in control treatments between experiments, significant cell loss was considered a loss of > 20% cells relative to the non-infected control.

Huh-7.5.1 cells = test: Cell loss / toxicity to Huh-7.5.1 host cells (nuclei count); conditions: 10 µM, infected Huh-7.5.1 cells
Procedure: as §1

GSK3b = molecular target: T2, GSK3b (Homo sapiens, UniProt P49841); test: In vitro phosphorylation of nucleocapsid peptides, ADP-Glo; type: biochemical; conditions: for Phosphorylation by GSK3b (Table 2): Mean ± Standard deviation, n = 3, no peptide substrate 1995 ± 133; for Relative phosphorylation by GSK3b: kinase with ATP alone, no peptide = 100, peptide ~250 μM, ATP 250 μM, 30 min
T2 construct: GST; purchased SignalChem G09-10G

PKACa = PKACa (Homo sapiens, UniProt P17612); test: as above; type: biochemical; conditions: kinase with ATP alone, no peptide = 100; peptide ~250 μM, ATP 250 μM, 30 min
PKCa = molecular target: T3, PKCa (Homo sapiens, UniProt P17252); test: as above; type: biochemical; conditions: for Phosphorylation by PKCa (Table 2): Mean ± Standard deviation, n = 3, no peptide substrate 1282 ± 51; for Relative phosphorylation by PKCa: kinase with ATP alone, no peptide = 100, peptide ~250 μM, ATP 250 μM, 30 min
T3 construct: GST; purchased SignalChem P61-18G

CDK2 + Cyclin A2 = CDK2 + Cyclin A2 (Homo sapiens, UniProt P24941); test: as above; type: biochemical; conditions: kinase with ATP alone, no peptide = 100; peptide ~250 μM, ATP 250 μM, 30 min
CK1d = molecular target: T4, CK1d (Homo sapiens, UniProt P48730); test: as above; type: biochemical; conditions: kinase with ATP alone, no peptide = 100; peptide ~250 μM, ATP 250 μM, 30 min
T4 construct: GST; purchased SignalChem C65-10G

CK1g1 = molecular target: T5, CK1g1 (Homo sapiens, UniProt Q9HCP0); test: as above; type: biochemical; conditions: kinase with ATP alone, no peptide = 100; peptide ~250 μM, ATP 250 μM, 30 min
T5 construct: GST; purchased SignalChem C68-11G

ERK1 = molecular target: T6, ERK1 (Homo sapiens, UniProt P27361); test: as above; type: biochemical; conditions: kinase with ATP alone, no peptide = 100; peptide ~250 μM, ATP 250 μM, 30 min
T6 construct: GST; purchased SignalChem M29-10G

CK2a1 = molecular target: T7, CK2a1 (Homo sapiens, UniProt P68400); test: as above; type: biochemical; conditions: kinase with ATP alone, no peptide = 100; peptide ~250 μM, ATP 250 μM, 30 min
T7 construct: GST; purchased SignalChem C70-10G

CK1a1 = molecular target: T8, CK1a1 (Homo sapiens, UniProt P48729); test: as above; type: biochemical; conditions: kinase with ATP alone, no peptide = 100; peptide ~250 μM, ATP 250 μM, 30 min
T8 construct: GST; purchased SignalChem C64-10G

[7] = average of screens 1 and 2, read-out: Average SARS-CoV-2 Nucleocapsid inhibition
[8] = screen 1, read-out: SARS-CoV-2 inhibition (% Nucleocapsid) 1
[9] = screen 2, read-out: SARS-CoV-2 inhibition (% Nucleocapsid) 2
[10] = read-out: SARS-CoV-2 inhibition (% dsRNA)

T2 sequence (P49841 whole entry): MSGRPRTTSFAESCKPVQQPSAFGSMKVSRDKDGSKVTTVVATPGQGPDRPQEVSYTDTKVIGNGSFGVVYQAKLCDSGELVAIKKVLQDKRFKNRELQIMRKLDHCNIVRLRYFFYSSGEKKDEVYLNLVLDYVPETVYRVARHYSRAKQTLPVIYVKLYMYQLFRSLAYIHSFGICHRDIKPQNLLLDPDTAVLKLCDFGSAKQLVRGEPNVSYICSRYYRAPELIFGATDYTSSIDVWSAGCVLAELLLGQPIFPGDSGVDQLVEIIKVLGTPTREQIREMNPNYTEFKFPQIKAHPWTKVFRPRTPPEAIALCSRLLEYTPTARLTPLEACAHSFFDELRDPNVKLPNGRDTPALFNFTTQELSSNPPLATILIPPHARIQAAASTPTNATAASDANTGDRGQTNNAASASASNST
T7 sequence (P68400 whole entry): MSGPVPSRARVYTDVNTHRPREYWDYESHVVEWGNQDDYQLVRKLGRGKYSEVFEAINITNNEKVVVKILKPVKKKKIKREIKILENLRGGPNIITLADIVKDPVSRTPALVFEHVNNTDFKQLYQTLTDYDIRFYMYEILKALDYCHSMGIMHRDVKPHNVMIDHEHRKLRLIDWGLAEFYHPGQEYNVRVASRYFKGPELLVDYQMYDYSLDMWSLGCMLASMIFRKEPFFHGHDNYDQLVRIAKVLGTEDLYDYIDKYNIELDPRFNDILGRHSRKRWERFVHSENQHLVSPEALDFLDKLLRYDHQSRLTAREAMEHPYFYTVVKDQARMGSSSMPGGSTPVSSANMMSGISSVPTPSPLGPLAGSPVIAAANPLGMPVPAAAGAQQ
T4 sequence (P48730 whole entry): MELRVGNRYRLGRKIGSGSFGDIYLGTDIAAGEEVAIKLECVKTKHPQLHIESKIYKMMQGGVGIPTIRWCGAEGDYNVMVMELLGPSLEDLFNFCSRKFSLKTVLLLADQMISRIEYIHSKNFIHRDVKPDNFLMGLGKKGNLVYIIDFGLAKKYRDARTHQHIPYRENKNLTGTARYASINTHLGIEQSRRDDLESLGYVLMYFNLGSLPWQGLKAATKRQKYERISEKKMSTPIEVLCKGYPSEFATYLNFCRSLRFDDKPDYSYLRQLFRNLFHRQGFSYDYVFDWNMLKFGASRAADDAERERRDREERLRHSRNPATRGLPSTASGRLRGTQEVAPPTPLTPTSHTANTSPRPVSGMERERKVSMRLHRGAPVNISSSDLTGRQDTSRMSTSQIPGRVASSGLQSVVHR
T6 sequence (P27361 whole entry): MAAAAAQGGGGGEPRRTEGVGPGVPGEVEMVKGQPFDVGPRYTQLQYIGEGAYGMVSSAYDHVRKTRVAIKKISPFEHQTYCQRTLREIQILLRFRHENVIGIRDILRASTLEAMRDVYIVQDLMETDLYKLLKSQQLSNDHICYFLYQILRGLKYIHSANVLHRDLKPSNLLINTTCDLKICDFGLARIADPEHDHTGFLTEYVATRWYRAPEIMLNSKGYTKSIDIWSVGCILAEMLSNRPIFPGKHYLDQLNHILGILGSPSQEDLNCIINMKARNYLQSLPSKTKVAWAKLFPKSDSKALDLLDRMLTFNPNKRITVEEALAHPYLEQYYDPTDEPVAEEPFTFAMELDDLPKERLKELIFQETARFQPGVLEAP
T1 sequence (P49841 whole entry): as the sequence (P49841 whole entry) above
T5 sequence (Q9HCP0 whole entry): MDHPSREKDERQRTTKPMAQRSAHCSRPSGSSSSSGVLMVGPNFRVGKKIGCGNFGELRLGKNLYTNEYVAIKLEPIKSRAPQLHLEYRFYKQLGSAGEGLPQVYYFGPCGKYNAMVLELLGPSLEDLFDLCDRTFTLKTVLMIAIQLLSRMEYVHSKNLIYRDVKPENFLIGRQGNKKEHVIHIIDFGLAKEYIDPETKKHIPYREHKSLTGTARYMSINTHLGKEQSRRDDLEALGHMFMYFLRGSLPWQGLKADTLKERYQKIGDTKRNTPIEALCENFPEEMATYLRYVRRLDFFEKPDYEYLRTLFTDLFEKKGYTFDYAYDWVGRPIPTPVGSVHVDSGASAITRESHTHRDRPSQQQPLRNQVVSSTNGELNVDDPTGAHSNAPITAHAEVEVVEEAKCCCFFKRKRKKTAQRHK
T8 sequence (P48729 whole entry): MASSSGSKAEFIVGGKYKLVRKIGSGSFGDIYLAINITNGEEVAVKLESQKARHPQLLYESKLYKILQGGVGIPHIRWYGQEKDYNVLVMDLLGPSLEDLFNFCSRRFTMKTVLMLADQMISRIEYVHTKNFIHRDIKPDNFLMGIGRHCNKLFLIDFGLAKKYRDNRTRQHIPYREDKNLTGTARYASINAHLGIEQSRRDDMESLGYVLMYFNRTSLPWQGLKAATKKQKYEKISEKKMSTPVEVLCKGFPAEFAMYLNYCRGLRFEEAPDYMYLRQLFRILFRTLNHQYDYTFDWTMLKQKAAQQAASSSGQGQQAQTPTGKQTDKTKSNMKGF

| Molecule | ED50, activity against HCoV-229E (HCoV-229E [1]) | ED50, activity against SARS-CoV-2 (SARS-CoV-2 [2]) | inhibition at 10 µM (SARS-CoV-2 [2]; [7]) | inhibition at 10 µM (SARS-CoV-2 [2]; [8]) | inhibition at 10 µM (SARS-CoV-2 [2]; [9]) | inhibition at 10 µM (SARS-CoV-2 [2]; [10]) | CC50 (in vitro) | Average cell loss (%) (Huh-7.5.1 cells) | Phosphorylation by GSK3b (Table 2) (GSK3b) | Relative phosphorylation by GSK3b (GSK3b) | Relative phosphorylation by PKACa (PKACa) | Phosphorylation by PKCa (Table 2) (PKCa) | Relative phosphorylation by PKCa (PKCa) | other results |
| --- | --- | --- | --- | --- | --- | --- | --- | --- | --- | --- | --- | --- | --- | --- |
| CSc1ccc(-n2cnc3ccc(-c4nnc(CCc5cccc(C#N)c5)o4)cc32)cc1 [P-0717632] | ~ 3 μM | 2.7 µM | 79.3% | 75.2% | 83.3% | 68.2% | > 100 µM | 24.4% | – | – | – | – | – | ED50, activity against SARS-CoV-2 (SARS-CoV-2 [2]; listed as T-1686568): ~ 3 μM; ED80 (SARS-CoV-2 [2]; infected Huh-7.5.1 cells): 10 µM; IC50 (GSK3β): 0.102 µM; reduction of viral titres (SARS-CoV-2 [3]): 2 log; average Combination Index (CI) (HCoV-229E [4]): 0.7; effect on intracellular N protein levels (SARS-CoV-2 [5]): greatly decrease intracellular N protein levels; N protein in remaining infected cells (SARS-CoV-2 [6]): accumulated; S protein expression (SARS-CoV-2 [6]): reduced |
| C[S+]([O-])c1ccc(-c2coc3ccc(-c4nnc(SCc5cccc(F)c5)o4)cc23)cc1 (stereo not shown) [P-7657632] | ~ 3 μM | ~ 3 μM and 2.9 μM | 93.1% | 100% | 86.2% | 100% | 39 µM | 25.4% | – | – | – | – | – | – |
| CSc1ccc(-c2coc3ccc(-c4nnc(N)o4)cc23)cc1Cl [P-9071942] | ~ 3 μM | ~ 3 μM and 3.3 μM | 94.5% | 100% | 89.1% | 100% | 27 µM | 29.9% | – | – | – | – | – | – |
| RGGSQASSRSS(pS)RS (RGGSQASSRSS[pS′]RS) [SCV2-N [177-190] - pS188, synthetic peptide modeled after SARS-CoV-2 nucleocapsid phosphorylation sites, pre-phosphorylated at S188] | – | – | – | – | – | – | – | – | 24,585 ± 645 | 1209 | 128 | 3861 ± 71 | 389 | – |
| RNSTPGSSRGT(pS)PAR (RNSTPGSSRGT[pS′]PAR) [SCV2-N [195-209] - pS206, synthetic peptide modeled after SARS-CoV-2 nucleocapsid phosphorylation sites, pre-phosphorylated at S206] | – | – | – | – | – | – | – | – | 24,082 ± 381 | 1068 | 205 | 1531 ± 47 | – | Relative phosphorylation by CDK2 + Cyclin A2 (CDK2 + Cyclin A2): 100; Relative phosphorylation by CK1d (CK1d): 105; Relative phosphorylation by CK1g1 (CK1g1): 105; Relative phosphorylation by ERK1 (ERK1): 100 |
| SQASSRSSSR(pS)RNS (SQASSRSSSR[pS′]RNS) [SCV2-N [180-193] - pS190, synthetic peptide modeled after SARS-CoV-2 nucleocapsid phosphorylation sites, pre-phosphorylated at S190] | – | – | – | – | – | – | – | – | 2957 ± 3 | 111 | 312 | 4161 ± 66 | 418 | Relative phosphorylation by CK2a1 (CK2a1): 100 |
| SSRSRNSSRNS(pT)PG (SSRSRNSSRNS[pT′]PG) [SCV2-N [187-200] - pT198, synthetic peptide modeled after SARS-CoV-2 nucleocapsid phosphorylation sites, pre-phosphorylated at T198] | – | – | – | – | – | – | – | – | 23,031 ± 486 | 1042 | 157 | 7032 ± 319 | 553 | Relative phosphorylation by CDK2 + Cyclin A2 (CDK2 + Cyclin A2): 101; Relative phosphorylation by CK1a1 (CK1a1): 250; Relative phosphorylation by CK1d (CK1d): 152; Relative phosphorylation by CK2a1 (CK2a1): 102; Relative phosphorylation by ERK1 (ERK1): 100 |
